In patent publication US8916565B2, “Pyrrolopyrazine-spirocyclic piperidine amides as modulators of ion channels” (priority 2011, dated 2014):

These compounds were tested against human NaV subtype, like NaV 1.7 (Homo sapiens, UniProt Q15858) (assay: E-VIPR optical membrane potential assay with electrical stimulation). Conditions: active against one or more sodium channels; Table 3 does not name the assay or NaV subtype; read-out: Binned Activity Data (IC50).
Assay type: cell-based

human NaV subtype, like NaV 1.7, sequence (Q15858 whole entry): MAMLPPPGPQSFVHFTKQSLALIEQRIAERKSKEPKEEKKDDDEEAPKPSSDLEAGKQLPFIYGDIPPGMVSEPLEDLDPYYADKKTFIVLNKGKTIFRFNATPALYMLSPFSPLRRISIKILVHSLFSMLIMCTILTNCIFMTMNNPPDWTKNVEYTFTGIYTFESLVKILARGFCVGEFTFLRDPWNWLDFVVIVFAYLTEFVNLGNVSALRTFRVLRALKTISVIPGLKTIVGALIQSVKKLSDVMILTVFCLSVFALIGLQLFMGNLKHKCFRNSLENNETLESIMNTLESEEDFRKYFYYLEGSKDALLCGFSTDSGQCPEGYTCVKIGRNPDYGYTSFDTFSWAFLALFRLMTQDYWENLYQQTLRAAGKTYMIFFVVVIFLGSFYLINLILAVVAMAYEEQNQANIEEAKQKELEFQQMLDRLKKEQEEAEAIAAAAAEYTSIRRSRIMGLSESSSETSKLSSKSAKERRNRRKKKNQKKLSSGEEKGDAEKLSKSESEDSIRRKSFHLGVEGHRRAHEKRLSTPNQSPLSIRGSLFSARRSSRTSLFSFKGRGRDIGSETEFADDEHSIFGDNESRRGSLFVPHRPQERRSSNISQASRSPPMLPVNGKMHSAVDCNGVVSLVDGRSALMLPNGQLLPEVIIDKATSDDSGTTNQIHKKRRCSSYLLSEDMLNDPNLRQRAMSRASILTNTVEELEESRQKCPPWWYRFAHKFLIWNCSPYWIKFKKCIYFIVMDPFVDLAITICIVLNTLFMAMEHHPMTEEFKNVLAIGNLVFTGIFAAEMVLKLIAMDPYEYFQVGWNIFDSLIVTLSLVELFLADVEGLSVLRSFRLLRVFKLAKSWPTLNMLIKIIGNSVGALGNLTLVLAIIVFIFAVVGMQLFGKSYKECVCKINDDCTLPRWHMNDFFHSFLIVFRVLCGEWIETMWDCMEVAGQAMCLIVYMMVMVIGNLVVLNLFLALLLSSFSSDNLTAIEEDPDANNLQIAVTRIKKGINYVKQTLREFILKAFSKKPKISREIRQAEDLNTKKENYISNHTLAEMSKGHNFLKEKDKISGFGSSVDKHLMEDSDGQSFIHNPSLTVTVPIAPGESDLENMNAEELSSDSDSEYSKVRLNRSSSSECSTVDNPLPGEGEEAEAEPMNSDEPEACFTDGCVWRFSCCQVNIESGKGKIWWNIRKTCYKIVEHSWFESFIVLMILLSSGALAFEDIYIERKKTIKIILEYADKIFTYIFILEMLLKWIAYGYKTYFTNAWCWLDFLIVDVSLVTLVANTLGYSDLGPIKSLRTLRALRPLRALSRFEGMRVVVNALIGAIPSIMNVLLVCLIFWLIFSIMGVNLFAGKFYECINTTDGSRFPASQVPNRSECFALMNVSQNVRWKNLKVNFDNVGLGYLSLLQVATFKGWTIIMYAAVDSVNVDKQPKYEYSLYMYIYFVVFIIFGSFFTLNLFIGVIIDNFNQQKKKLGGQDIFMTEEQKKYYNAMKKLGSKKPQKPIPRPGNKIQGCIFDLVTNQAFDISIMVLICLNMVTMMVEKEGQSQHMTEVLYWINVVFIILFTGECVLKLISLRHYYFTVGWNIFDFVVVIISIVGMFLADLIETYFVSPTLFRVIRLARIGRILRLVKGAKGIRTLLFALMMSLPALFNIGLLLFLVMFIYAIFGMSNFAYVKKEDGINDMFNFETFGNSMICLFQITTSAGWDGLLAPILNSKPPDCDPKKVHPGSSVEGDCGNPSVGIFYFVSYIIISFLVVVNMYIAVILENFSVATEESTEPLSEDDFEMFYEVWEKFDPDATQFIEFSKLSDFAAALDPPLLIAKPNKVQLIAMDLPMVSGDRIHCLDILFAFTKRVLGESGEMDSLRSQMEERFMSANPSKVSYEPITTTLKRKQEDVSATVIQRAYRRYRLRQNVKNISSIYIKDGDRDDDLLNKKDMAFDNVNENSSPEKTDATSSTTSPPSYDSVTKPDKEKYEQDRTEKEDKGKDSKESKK

Compound	IC50
COc1cc(C(=O)N2CCC3(CC2)c2ccc(C(F)(F)F)n2CCN3CC(F)F)ccc1OC(C)C [Compound 706]	≤ 2000 nM
Cc1cc(C(=O)N2CCC3(CC2)c2ccc(C(=O)C(F)(F)F)n2CCN3C)ccc1S(=O)(=O)C(C)C [Compound 508]	≤ 2000 nM
Cc1cc(C(=O)N2CCC3(CC2)c2ccc(C(F)(F)F)n2CCN3C2CC2)ccc1S(=O)(=O)C(C)C [Compound 492]	≤ 2000 nM
Cc1cc(C(=O)N2CCC3(CC2)c2ccc(C(=O)C(C)(C)C)n2CCN3C)ccc1C(C)(C)O [Compound 523]	≤ 2000 nM
COc1cc(C(=O)N2CCC3(CC2)NC(C)(C)Cn2c(C(=O)C(F)(F)F)ccc23)ccc1C(C)(C)C [Compound 705]	≤ 2000 nM
COc1cc(C(=O)N2CC[C@]3(C[C@H]2C)c2ccc(C(F)(F)F)n2CCN3C)ccc1OC(C)C [Compound 328]	> 5000 nM
CC[C@@H](C)Oc1ccc(C(=O)N2CCC3(CC2)c2ccc(Cl)n2CCN3C)cc1OC [Compound 294]	≤ 2000 nM
Cc1cc(C(=O)N2CCC3(CC2)NCC(C)(C)n2c(C(F)(F)F)ccc23)ccc1OC(C)C [Compound 280]	≤ 2000 nM
CC(C)CNc1ncccc1C(=O)N1CCC2(CC1)c1ccc(C(F)(F)F)n1CCN2C [Compound 44]	2000 to 5000 nM
COc1cc(C(=O)N2CCC3(CC2)c2ccc(C(F)(F)F)n2CCN3CC2CC2)ccc1OC(C)C [Compound 574]	≤ 2000 nM
CC(C)COc1ccc(C(=O)N2CCC3(CC2)c2ccc(C(=O)C(F)(F)F)n2CCN3C)cc1 [Compound 501]	≤ 2000 nM
COc1cc(C(=O)N2CCC3(CC2)c2ccc(C(F)(F)F)n2CCN3C)ccc1OC(C)(C)C [Compound 158]	≤ 2000 nM
CN1CCn2c(C(F)(F)F)cc(F)c2C12CCN(C(=O)c1ccc(C3CC3)cc1)CC2 [Compound 184]	2000 to 5000 nM
Cc1cc(C(=O)N2CCC3(CC2)c2ccc(C(=O)C(F)(F)F)n2CCN3C)ccc1-c1ccc(C#N)nc1 [Compound 216]	≤ 2000 nM
COc1cc(C(=O)N2CCC3(CC2)c2ccc(C(F)(F)C(F)(F)F)n2CCN3C)ccc1OC(C)C [Compound 722]	≤ 2000 nM
CC(C)Oc1ccc(C(=O)N2CCC3(CC2)c2ccc(C(F)(F)F)n2CCN3C)cc1CO [Compound 709]	≤ 2000 nM
CCCOc1cc(C(=O)N2CCC3(CC2)c2ccc(C(=O)C(F)(F)F)n2CCN3C)ccc1OC [Compound 142]	≤ 2000 nM
CC(C)CCOc1ccc(C(=O)N2CCC3(CC2)c2ccc(C(=O)C(F)(F)F)n2C(C)CN3C)nc1 (centres unmarked) [Compound 444]	≤ 2000 nM
CC(=O)c1ccc2n1CCN(C)C21CCN(C(=O)c2ccc(OCC(F)(F)F)cc2)CC1 [Compound 520]	≤ 2000 nM
CN1CCn2c(C(=O)C(C)(C)C)ccc2C12CCN(C(=O)c1ccc(C(C)(C)O)c(F)c1)CC2 [Compound 251]	≤ 2000 nM
CC(C)Oc1ccc(C(=O)N2CCC3(CC2)c2ccc(C(=O)C(C)(C)C)n2CCN3C)c(F)c1 [Compound 91]	≤ 2000 nM
CCC(=O)c1ccc2n1CCN(C)C21CCN(C(=O)c2ccc(OC(C)C)c(Cl)c2)CC1 [Compound 107]	≤ 2000 nM
CCCCOc1ccc(C(=O)N2CCC3(CC2)c2ccc(C(C)=O)n2CCN3C)cc1OC [Compound 699]	≤ 2000 nM
COCCOc1ccc(C(=O)N2CCC3(CC2)c2ccc(C(F)(F)C(F)(F)F)n2CCN3C)cc1OC [Compound 245]	≤ 2000 nM
Cc1cc(C(=O)N2CCC3(CC2)c2ccc(C(=O)C(F)(F)F)n2CCN3C)ccc1-c1ccnn1C [Compound 478]	> 5000 nM
CC(=O)c1ccc2n1CCN(C)C21CCN(C(=O)c2ccc(OCc3ccccc3)cc2)CC1 [Compound 604]	≤ 2000 nM
COc1ccc(C(=O)N2CCC3(CC2)NC(C)(C)Cn2c(C(C)=O)ccc23)cc1Cl [Compound 204]	> 5000 nM
CC(=O)c1ccc2n1CCN(C)C21CCN(C(=O)c2ccc(S(=O)(=O)C(C)C)c(C)c2)CC1 [Compound 246]	> 5000 nM
COc1cc(C(=O)N2CCC3(CC2)c2ccc(C(C)=O)n2CCN3C)ccc1OCCOC(F)(F)F [Compound 541]	≤ 2000 nM
